Test results: patent US5081119A, “Use of 5-alkylpyridazine derivatives as drugs active on the cholinergic system” (priority 1989, dated 1992)

Tests used:
[1] = target: T1, M1-type muscarinic cholinergic receptor (Rattus norvegicus, UniProt P08482); experiment: Affinity for M1-type muscarinic cholinergic receptor: displacement of [3H]-pirenzepine on rat hippocampus homogenate; type: binding; settings: for IC50: displacement of [3H]-PZ (1 nM), rat hippocampus homogenate, 2 h at 4° C., pH 7.40; for r = M2/M1 (ratio of the M2 and M1 IC50 values, selectivity towards the M1 receptor): ratio of IC50 3H-NMS (guinea-pig ileum) to IC50 3H-PZ (rat hippocampus)
T1 construct: on a homogenate of rat hippocampus; from tissue; host or cells: rat hippocampus homogenate
T1 sequence (P08482 1-460): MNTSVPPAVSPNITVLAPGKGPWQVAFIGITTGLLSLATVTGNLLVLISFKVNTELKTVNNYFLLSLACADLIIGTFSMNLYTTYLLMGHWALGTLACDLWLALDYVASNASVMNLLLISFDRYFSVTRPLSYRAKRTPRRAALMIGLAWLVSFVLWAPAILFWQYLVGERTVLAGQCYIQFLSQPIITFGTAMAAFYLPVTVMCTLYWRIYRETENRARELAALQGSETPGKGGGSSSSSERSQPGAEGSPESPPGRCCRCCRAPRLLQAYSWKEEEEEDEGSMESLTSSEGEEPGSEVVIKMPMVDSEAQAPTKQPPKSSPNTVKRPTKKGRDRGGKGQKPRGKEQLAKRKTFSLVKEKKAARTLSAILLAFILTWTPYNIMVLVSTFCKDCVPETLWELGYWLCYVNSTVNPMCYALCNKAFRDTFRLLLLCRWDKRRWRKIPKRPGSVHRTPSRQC
From the text: (§1) In vitro, we studied the interaction of the products (II) with tritiated pirenzepine and tritiated N-methylscopolamine bound with a high affinity to membranes of rat hippocampus and membranes of smooth muscle of guinea-pig ileum, respectively.
A) Test for affinity for the M1 -type muscarinic cholinergic receptor
The interaction of molecules with the M1 -type muscarinic receptors was studied by in vitro measurement, on a homogenate of rat hippocampus, of the displacement of tritiated pirenzepine ([^3 H]-PZ) from its specific binding sites. Aliquots (100 μl) of a 5% (w/v) homogenate of rat hippocampus in an Na2 HPO4 buffer (50 mM, pH 7.40) are incubated for 2 h at 4° C. in the presence of [^3 H]-PZ (76 Ci/mmol; final concentration: 1 nM) and increasing concentrations of test products. The final volume is 2 ml. The reaction is stopped by centrifugation for 10 min at 50,000×g. After decantation and washing of the residues, the bound radioactivity is counted by liquid scintillation. The non-specific binding is determined in the presence of 10 μmol/l of atropine sulfate. The 50% inhibitory concentration (IC50) is determined graphically (Ref.: Watson J. D., Roeskoe W. R. and Yamamura H. I., Life Sci., 31, 2019-2029, 1982).
(§2) Table 3 indicates the affinities of the products of the invention for the M1 and M2 receptors. The results are expressed as 50 percent inhibitory concentrations (IC50), i.e. the concentration (in μM) which causes a 50% inhibition of the binding of the tritiated ligand to the membrane receptors. The IC50 for displacement of ^3 H-pirenzepine represents the affinity for the M1 receptor; the IC50 for displacement of ^3 H-NMS represents the affinity for the M2 receptor.
(§3) The Table also indicates, in the 3rd column, the ratio r of the M2 and M1 IC50 values, which expresses the selectivity of the products towards the M1 receptor.

[2] = target: T2, M2-type muscarinic cholinergic receptor (Cavia porcellus, UniProt H0VRN8); experiment: Affinity for M2-type muscarinic cholinergic receptor: displacement of [3H]-N-methylscopolamine on guinea-pig ileum smooth muscle homogenate; type: binding; settings: displacement of [3H]-NMS (0.3 nM), 20 min at 30° C., pH 7.5
T2 construct: on a homogenate of smooth muscle of guinea-pig ileum; from tissue; host or cells: guinea-pig ileum smooth muscle homogenate
T2 sequence (H0VRN8 1-466): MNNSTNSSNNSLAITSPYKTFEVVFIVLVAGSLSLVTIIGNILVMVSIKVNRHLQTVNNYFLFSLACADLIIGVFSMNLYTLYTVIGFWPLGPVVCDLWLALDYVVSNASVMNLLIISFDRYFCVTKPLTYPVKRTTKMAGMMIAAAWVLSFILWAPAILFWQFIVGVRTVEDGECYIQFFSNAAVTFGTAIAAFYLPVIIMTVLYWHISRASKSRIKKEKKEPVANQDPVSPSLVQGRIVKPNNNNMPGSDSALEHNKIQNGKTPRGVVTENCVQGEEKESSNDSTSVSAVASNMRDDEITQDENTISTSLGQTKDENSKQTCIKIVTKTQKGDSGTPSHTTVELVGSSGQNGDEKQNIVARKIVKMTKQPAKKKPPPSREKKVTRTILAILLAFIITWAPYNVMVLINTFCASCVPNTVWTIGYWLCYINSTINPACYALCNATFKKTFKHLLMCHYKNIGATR
From the text: as §1
B) Test for affinity for the M2 -type muscarinic cholinergic receptor.
The interaction with the M2 -type muscarinic receptors was studied by in vitro measurement, on a homogenate of smooth muscle of guinea-pig ileum, of the displacement of tritiated N-methylscopolamine ([^3 H]-NMS) from its specific binding sites. Aliquots (50 μl) of a 0.625% (w/v) homogenate of smooth guinea-pig muscle in HEPES buffer (20 mM) containing NaCl (100 mM) and MgCl2 (10 mM) (final pH: 7.5) are incubated for 20 min at 30° C. in the presence of [^3 H]-NMS (85 Ci/mmol; final concentration: 0.3 nM) and increasing concentrations of test products. The final volume is 1 ml. The reaction is stopped by centrifugation for 5 min at 15,000×g. The non-specific binding is determined in the presence of 10 μmol-l of atropine sulfate (Ref.: Hammer R., Berrie C. P., Birdsall N. I. M., Burgen A. S. V. and Hulme E. C., Nature, 283, 90-92, 1980; Hulme E. C., Birdsall N. I. M., Burgen A. S. V. and Mettha P., Mol. Pharmacol., 14, 737-750, 1978).
as §2, §3

[3] = system: rotational behavior induced by intrastriatal pirenzepine (M1 central muscarinic cholinergic receptors); experiment: Antagonism of rotational behavior induced by intrastriatal injection of pirenzepine in mice; type: in vivo, mice (female, Swiss, CD 1 printed as DC 1, Charles River); settings: 3 mg/kg p.o., 4 hours before pirenzepine 1 μg into right striatum; 10 animals per dose; Student t test, *p < 0.05, **p < 0.01
Method: The compounds of formula (II) were also subjected to an in vivo study. Pirenzepine (PZ) is a specific antagonist of ligands for the M1 central muscarinic cholinergic receptors. The intrastriatal injection of PZ into mice induces rotational behavior. The antagonism of this behavior by the test products was studied. The products according to the invention are administered orally after solubilization in distilled water or suspension in a 5% solution of gum arabic. The control animals receive an injection of the pure solvent under the same conditions. The animals used are female mice (Swiss, DC 1, Charles River, France) with a body weight of between 25 and 30 grams. Pirenzepine is dissolved in a phosphate buffer; the pH of the solution is 6. The test products or their solvents are administered orally in a volume of 0.4 ml per 20 g of body weight, 4 hours before a direct injection of pirenzepine at a dose of 1 μg of product in 1 μl of solvent into the right striatum of the mouse, according to the method described by P. Worms et al. in Psychopharmacology 1987, 93, 489-493. The number of contralateral rotations (rotations in the opposite direction to the side injected) was counted for three 2-minute periods after the injection of pirenzepine: minutes 2 to 4, 8 to 10 and 13 to 15. Each treatment involves 10 animals per dose. For each treatment, the total number of rotations and the percentage antagonism compared with the control group are calculated. The results obtained with the products of formula (II) administered orally at a dose of 3 mg/kg of body weight are collated in Table 4.

cholinergic receptors = experiment: Ligand properties for the cholinergic receptors (subsequent studies); type: binding
[4] = French patents 2 141 697, 2 510 997, 2 510 998; cited from earlier work

SMILES	IC50 [1]	r = M2/M1 (ratio of the M2 and M1 IC50 values, selectivity towards the M1 receptor) [1]	IC50 [2]	% inhibition of rotations [3]	properties as a ligand for the cholinergic receptors (in words) (cholinergic receptors)	antidepressant properties [4]
CCc1cc(NCCN2CCOCC2)nnc1-c1ccccc1 [SR 96169 A]	3700 nM	8	30000 nM	-46%		
Cc1cc(NCCN2CCOCC2)nnc1-c1ccccc1.O=C(O)C(=O)O.O=C(O)C(=O)O [CM 30316, 3-(2-Morpholinoethylamino)-5-methyl-6-phenylpyridazine dioxalate]	550 nM	182	100000 nM	-20%		
Cc1cc(NCCN2CCOCC2)nnc1-c1ccccc1 [(I), 3-(2-morpholinoethylamino)-5-methyl-6-phenylpyridazine]					possesses valuable properties as a ligand for the cholinergic receptors	antidepressant properties of moderate intensity
CCCc1cc(NCCN2CCOCC2)nnc1-c1ccccc1 [SR 96186 A]	600 nM	30	18000 nM	-41%		

Second part, led by results:

IC50 [1]	r = M2/M1 (ratio of the M2 and M1 IC50 values, selectivity towards the M1 receptor) [1]	IC50 [2]	SMILES	% inhibition of rotations [3]	properties as a ligand for the cholinergic receptors (in words) (cholinergic receptors)	antidepressant properties [4]
70 nM	14	1000 nM	CCc1cc(NCCN(CC)CC)nnc1-c1ccccc1 [SR 96180 A]	-38%		
60 nM	47	2800 nM	CCN(CC)CCNc1cc(C)c(-c2ccccc2)nn1 [SR 96150 A]	-49%		
400 nM	9	3500 nM	CCCc1cc(NCCN(CC)CC)nnc1-c1ccccc1 [SR 96187 A]	-37%		
